Assay results: ChEMBL document CHEMBL3045388, “Sensitivity of Podosphaera aphanis isolates to DMI fungicides: distribution and reduced cross-sensitivity” (Pest Manag Sci, 2010)
In brackets after ≈: the same amount, converted by molar mass.

Tests used:
Format in all cases: functional, organism-based
Podosphaera aphanis [1] = assay: Antifungal activity against Podosphaera aphanis isolate BRE in Darselect leaf disks after 8 days; details: 192 h
Podosphaera aphanis [2] = assay: Antifungal activity against Podosphaera aphanis isolate BRA in Darselect leaf disks after 8 days; details: 192 h
Podosphaera aphanis [3] = assay: Antifungal activity against Podosphaera aphanis isolate ART in Darselect leaf disks after 8 days; details: 192 h
Podosphaera aphanis [4] = assay: Antifungal activity against Podosphaera aphanis isolate AVI in Darselect leaf disks after 8 days; details: 192 h
Podosphaera aphanis [5] = assay: Antifungal activity against Podosphaera aphanis isolate ABA in Darselect leaf disks after 8 days; details: 192 h
Podosphaera aphanis [6] = assay: Antifungal activity against Podosphaera aphanis isolate VIR in Darselect leaf disks after 8 days; details: 192 h
Podosphaera aphanis [7] = assay: Antifungal activity against Podosphaera aphanis isolate SOU in Darselect leaf disks after 8 days; details: 192 h
Podosphaera aphanis [8] = assay: Antifungal activity against Podosphaera aphanis isolate SOD in Darselect leaf disks after 8 days; details: 192 h
Podosphaera aphanis [9] = assay: Antifungal activity against Podosphaera aphanis isolate SOC in Darselect leaf disks after 8 days; details: 192 h
Podosphaera aphanis [10] = assay: Antifungal activity against Podosphaera aphanis isolate SIL in Darselect leaf disks after 8 days; details: 192 h
Podosphaera aphanis [11] = assay: Antifungal activity against Podosphaera aphanis isolate SAG in Darselect leaf disks after 8 days; details: 192 h
Podosphaera aphanis [12] = assay: Antifungal activity against Podosphaera aphanis isolate PES in Darselect leaf disks after 8 days; details: 192 h
Podosphaera aphanis [13] = assay: Antifungal activity against Podosphaera aphanis isolate PAJ in Darselect leaf disks after 8 days; details: 192 h
Podosphaera aphanis [14] = assay: Antifungal activity against Podosphaera aphanis isolate MEP in Darselect leaf disks after 8 days; details: 192 h
Podosphaera aphanis [15] = assay: Antifungal activity against Podosphaera aphanis isolate MEG in Darselect leaf disks after 8 days; details: 192 h
Podosphaera aphanis [16] = assay: Antifungal activity against Podosphaera aphanis isolate MAR in Darselect leaf disks after 8 days; details: 192 h
Podosphaera aphanis [17] = assay: Antifungal activity against Podosphaera aphanis isolate LI1 in Darselect leaf disks after 8 days; details: isolate LI1, 192 h
Podosphaera aphanis [18] = assay: Antifungal activity against Podosphaera aphanis isolate LBP in Darselect leaf disks after 8 days; details: 192 h
Podosphaera aphanis [19] = assay: Antifungal activity against Podosphaera aphanis isolate HOR in Darselect leaf disks after 8 days; details: 192 h
Podosphaera aphanis [20] = assay: Antifungal activity against Podosphaera aphanis isolate GUI in Darselect leaf disks after 8 days; details: 192 h
Podosphaera aphanis [21] = assay: Antifungal activity against Podosphaera aphanis isolate DOU in Darselect leaf disks after 8 days; details: 192 h
Podosphaera aphanis [22] = assay: Antifungal activity against Podosphaera aphanis isolate DAR18 in Darselect leaf disks after 8 days; details: isolate DAR18, 192 h
Podosphaera aphanis [23] = assay: Antifungal activity against Podosphaera aphanis isolate DAR1 in Darselect leaf disks after 8 days; details: isolate DAR1, 192 h
Podosphaera aphanis [24] = assay: Antifungal activity against Podosphaera aphanis isolate CAM in Darselect leaf disks after 8 days; details: 192 h

Structure (SMILES): CCCCC(C#N)(Cn1cncn1)c1ccc(Cl)cc1 (centres undefined) [MYCLOBUTANIL]
- EC50 (Podosphaera aphanis [1]): 5.3 µg/mL (≈ 18.4 µM)
- MIC (Podosphaera aphanis [1]): 13.7 µg/mL (≈ 47.4 µM)
- EC50 (Podosphaera aphanis [2]): 1.3 µg/mL (≈ 4.5 µM)
- MIC (Podosphaera aphanis [2]): 3 µg/mL (≈ 10.4 µM)
- EC50 (Podosphaera aphanis [3]): 3.9 µg/mL (≈ 13.5 µM)
- MIC (Podosphaera aphanis [3]): 10.7 µg/mL (≈ 37.1 µM)
- EC50 (Podosphaera aphanis [4]): 0.5 µg/mL (≈ 1.73 µM)
- MIC (Podosphaera aphanis [4]): 2 µg/mL (≈ 6.93 µM)
- EC50 (Podosphaera aphanis [5]): 3.75 µg/mL (≈ 13 µM)
- MIC (Podosphaera aphanis [5]): 9 µg/mL (≈ 31.2 µM)
- EC50 (Podosphaera aphanis [6]): 1.8 µg/mL (≈ 6.23 µM)
- MIC (Podosphaera aphanis [6]): 5 µg/mL (≈ 17.3 µM)
- EC50 (Podosphaera aphanis [7]): 10 µg/mL (≈ 34.6 µM)
- MIC (Podosphaera aphanis [7]): 23 µg/mL (≈ 79.6 µM)
- EC50 (Podosphaera aphanis [8]): 13.1 µg/mL (≈ 45.4 µM)
- MIC (Podosphaera aphanis [8]): 21.5 µg/mL (≈ 74.5 µM)
- EC50 (Podosphaera aphanis [9]): 6.45 µg/mL (≈ 22.3 µM)
- MIC (Podosphaera aphanis [9]): 26 µg/mL (≈ 90 µM)
- EC50 (Podosphaera aphanis [10]): 2 µg/mL (≈ 6.93 µM)
- MIC (Podosphaera aphanis [10]): 6.5 µg/mL (≈ 22.5 µM)
- EC50 (Podosphaera aphanis [11]): 1.7 µg/mL (≈ 5.89 µM)
- MIC (Podosphaera aphanis [11]): 5.33 µg/mL (≈ 18.5 µM)
- EC50 (Podosphaera aphanis [12]): < 0.1 µg/mL
- MIC (Podosphaera aphanis [12]): < 0.1 µg/mL
- EC50 (Podosphaera aphanis [13]): 3 µg/mL (≈ 10.4 µM)
- MIC (Podosphaera aphanis [13]): 6.9 µg/mL (≈ 23.9 µM)
- EC50 (Podosphaera aphanis [14]): 0.8 µg/mL (≈ 2.77 µM)
- MIC (Podosphaera aphanis [14]): 3 µg/mL (≈ 10.4 µM)
- EC50 (Podosphaera aphanis [15]): 1 µg/mL (≈ 3.46 µM)
- MIC (Podosphaera aphanis [15]): 2.35 µg/mL (≈ 8.14 µM)
- EC50 (Podosphaera aphanis [16]): 5.5 µg/mL (≈ 19 µM)
- MIC (Podosphaera aphanis [16]): 16 µg/mL (≈ 55.4 µM)
- EC50 (Podosphaera aphanis [17]): 3.6 µg/mL (≈ 12.5 µM)
- MIC (Podosphaera aphanis [17]): 8.5 µg/mL (≈ 29.4 µM)
- EC50 (Podosphaera aphanis [18]): 4.8 µg/mL (≈ 16.6 µM)
- MIC (Podosphaera aphanis [18]): 12.5 µg/mL (≈ 43.3 µM)
- EC50 (Podosphaera aphanis [19]): 4.25 µg/mL (≈ 14.7 µM)
- MIC (Podosphaera aphanis [19]): 10.8 µg/mL (≈ 37.2 µM)
- EC50 (Podosphaera aphanis [20]): 1.15 µg/mL (≈ 3.98 µM)
- MIC (Podosphaera aphanis [20]): 2.35 µg/mL (≈ 8.14 µM)
- EC50 (Podosphaera aphanis [21]): 8.9 µg/mL (≈ 30.8 µM)
- MIC (Podosphaera aphanis [21]): 15.5 µg/mL (≈ 53.7 µM)
- EC50 (Podosphaera aphanis [22]): 14.7 µg/mL (≈ 50.8 µM)
- MIC (Podosphaera aphanis [22]): 31 µg/mL (≈ 107 µM)
- EC50 (Podosphaera aphanis [23]): 4.75 µg/mL (≈ 16.4 µM)
- MIC (Podosphaera aphanis [23]): 15 µg/mL (≈ 51.9 µM)
- EC50 (Podosphaera aphanis [24]): 2.6 µg/mL (≈ 9 µM)
- MIC (Podosphaera aphanis [24]): 5.5 µg/mL (≈ 19 µM)

Structure (SMILES): CCCC(Cn1cncn1)c1ccc(Cl)cc1Cl (centres undefined) [PENCONAZOLE]
- EC50 (Podosphaera aphanis [1]): 1.9 µg/mL (≈ 6.69 µM)
- MIC (Podosphaera aphanis [1]): 6 µg/mL (≈ 21.1 µM)
- EC50 (Podosphaera aphanis [2]): 1.48 µg/mL (≈ 5.21 µM)
- MIC (Podosphaera aphanis [2]): 2.6 µg/mL (≈ 9.15 µM)
- EC50 (Podosphaera aphanis [3]): 2.2 µg/mL (≈ 7.74 µM)
- MIC (Podosphaera aphanis [3]): 6.6 µg/mL (≈ 23.2 µM)
- EC50 (Podosphaera aphanis [4]): 0.58 µg/mL (≈ 2.04 µM)
- MIC (Podosphaera aphanis [4]): 1.8 µg/mL (≈ 6.33 µM)
- EC50 (Podosphaera aphanis [5]): 1.25 µg/mL (≈ 4.4 µM)
- MIC (Podosphaera aphanis [5]): 2.85 µg/mL (≈ 10 µM)
- EC50 (Podosphaera aphanis [6]): 2 µg/mL (≈ 7.04 µM)
- MIC (Podosphaera aphanis [6]): 5 µg/mL (≈ 17.6 µM)
- EC50 (Podosphaera aphanis [7]): 2.1 µg/mL (≈ 7.39 µM)
- MIC (Podosphaera aphanis [7]): 9.8 µg/mL (≈ 34.5 µM)
- EC50 (Podosphaera aphanis [9]): 3.2 µg/mL (≈ 11.3 µM)
- MIC (Podosphaera aphanis [9]): 7.9 µg/mL (≈ 27.8 µM)
- EC50 (Podosphaera aphanis [10]): 0.4 µg/mL (≈ 1.41 µM)
- MIC (Podosphaera aphanis [10]): 1 µg/mL (≈ 3.52 µM)
- EC50 (Podosphaera aphanis [11]): 0.28 µg/mL (≈ 0.985 µM)
- MIC (Podosphaera aphanis [11]): 0.5 µg/mL (≈ 1.76 µM)
- EC50 (Podosphaera aphanis [12]): 0.04 µg/mL (≈ 0.141 µM)
- MIC (Podosphaera aphanis [12]): 0.15 µg/mL (≈ 0.528 µM)
- EC50 (Podosphaera aphanis [13]): 2.9 µg/mL (≈ 10.2 µM)
- MIC (Podosphaera aphanis [13]): 3.9 µg/mL (≈ 13.7 µM)
- EC50 (Podosphaera aphanis [14]): 0.3 µg/mL (≈ 1.06 µM)
- MIC (Podosphaera aphanis [14]): 0.8 µg/mL (≈ 2.82 µM)
- EC50 (Podosphaera aphanis [15]): 0.43 µg/mL (≈ 1.51 µM)
- MIC (Podosphaera aphanis [15]): 1 µg/mL (≈ 3.52 µM)
- EC50 (Podosphaera aphanis [16]): 2.55 µg/mL (≈ 8.97 µM)
- MIC (Podosphaera aphanis [16]): 10 µg/mL (≈ 35.2 µM)
- EC50 (Podosphaera aphanis [17]): 2.45 µg/mL (≈ 8.62 µM)
- MIC (Podosphaera aphanis [17]): 5.15 µg/mL (≈ 18.1 µM)
- EC50 (Podosphaera aphanis [18]): 4.2 µg/mL (≈ 14.8 µM)
- MIC (Podosphaera aphanis [18]): 9.5 µg/mL (≈ 33.4 µM)
- EC50 (Podosphaera aphanis [19]): 0.8 µg/mL (≈ 2.82 µM)
- MIC (Podosphaera aphanis [19]): 2 µg/mL (≈ 7.04 µM)
- EC50 (Podosphaera aphanis [20]): 0.9 µg/mL (≈ 3.17 µM)
- MIC (Podosphaera aphanis [20]): 2.1 µg/mL (≈ 7.39 µM)
- EC50 (Podosphaera aphanis [21]): 1.3 µg/mL (≈ 4.57 µM)
- MIC (Podosphaera aphanis [21]): 2 µg/mL (≈ 7.04 µM)
- EC50 (Podosphaera aphanis [22]): 3.5 µg/mL (≈ 12.3 µM)
- MIC (Podosphaera aphanis [22]): 9 µg/mL (≈ 31.7 µM)
- EC50 (Podosphaera aphanis [23]): 2 µg/mL (≈ 7.04 µM)
- MIC (Podosphaera aphanis [23]): 3 µg/mL (≈ 10.6 µM)
- EC50 (Podosphaera aphanis [24]): 0.9 µg/mL (≈ 3.17 µM)
- MIC (Podosphaera aphanis [24]): 2.5 µg/mL (≈ 8.8 µM)
